Earlier results as cited in patent US20120116113A1, “PROCESS FOR MAKING NEO-ENRICHED p-MENTHANE COMPOUNDS” (priority 2010, published 2012).

Details: for initial cooling rating: table below paragraph [0137] of U.S. Pat. Appl. 2010/0076080

SMILES | cooling effect (according to Yelm et al., U.S. Pat. Appl. 2010/0076080) | initial cooling rating
CC(C)[C@@H]1CC[C@@H](C)C[C@@H]1C(=O)Nc1ccc(CC#N)cc1 (single isomer, unassigned) [neo isomer [of G-180]] | potent and long-lasting cooling effect | 
CCOC(=O)CNC(=O)[C@@H]1C[C@H](C)CC[C@H]1C(C)C [normal WS-5] |  | 53.9
CCOC(=O)CNC(=O)C1CC(C)CCC1C(C)C (stereo not drawn) [neo-WS-5] |  | 61.9
